Reference: PubChem BioAssay AID179 (DTP/NCI, 2004)
The source made the active and inactive calls.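 Rule for the calls: active = compounds giving half or more protection of infected cells from virus-caused growth loss, again on retest; inactive = the rest.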 Where a SMILES comes first, the peptide text is derived from it. [ ]: non-standard residue; d: D form. The star is where a group is joined. ξ: configuration not given here. Bz = O=C(c1ccccc1)*; Bn = c1ccc(C*)cc1; ξC = NC(CS)C(=O)O

System: CEM cells HIV-1 protection, formazan growth assay
Experiment: NCI AIDS Antiviral Assay
Conditions: for IC50: measured here: growth of uninfected CEM cells
In short: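 Human CEM cells, uninfected and HIV-1-infected, received five drug concentrations, and growth was read by soluble formazan assay. Compounds giving at least 50% protection were retested; reproducible 100% protection defined confirmed active.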

O=NNc1ccc(S(=O)(=O)c2ccc3ccccc3c2)cn1
EC50: > 200 µM | IC50: 112 µM

CSc1cc(-c2ccccc2)s[s+]1 (tested in a mixture with another compound)
EC50: > 200 µM | IC50: 35.5 µM

CN(C)CC1(C)Cc2cc(Cl)sc2C1=O (stereo not drawn)
EC50: > 200 µM | IC50: > 200 µM

CCOC(OC1=C(C#N)CCC1)C(C)[Se]c1ccccc1 (stereo not drawn)
EC50: > 49 µM | IC50: 26.3 µM

COc1ccccc1C1(C)SCc2nc3ccccc3n21 (stereo not drawn)
EC50: > 87.1 µM | IC50: 79.4 µM

Cc1cn([C@H]2C[C@@H]3[C@@H](COC(CCl)N3O)O2)c(=O)[nH]c1=O (stereo partly drawn)
EC50: > 200 µM | IC50: 31.6 µM

O=C(O)CN=c1c2ccccc2n(O)c2ccccc12
outcome: inactive

CC12c3c4cccc3Oc3cc(N)cc(c31)Oc1cc(N)cc(c12)O4
EC50: > 200 µM | IC50: 2.88 µM

CC(=O)OCCOCn1c2ccccc2c2c3c(c4c5ccccc5n(COCCO)c4c21)C(=O)N(Cc1ccccc1)C3=O
outcome: inactive

COc1cc(C(c2cccc3ccccc23)N2C(=O)CCC2C(=O)O)cc(OC)c1OC (stereo not drawn)
EC50: > 200 µM | IC50: > 200 µM

Cc1ccc(Nc2cc(=O)[nH]c(=S)[nH]2)cc1
EC50: > 200 µM | IC50: > 200 µM

O=C1NC(O)CCN1C1OC(CO)C(O)C1O (stereo not drawn)
EC50: > 200 µM | IC50: > 200 µM

COc1ccc(/C=C2\C(=O)Nc3ccccc32)cc1OC
EC50: > 1.95 µM | IC50: > 1.95 µM

O=C(Nc1ccc([N+](=O)[O-])cc1[N+](=O)[O-])C(=O)C(C(=O)c1ccc(Cl)c(Cl)c1)C1OC(=O)c2ccccc21 (stereo not drawn)
EC50: > 89.1 µM | IC50: 28.8 µM

COc1cc(NCCN(CC(C)C)C(C)C(C)C)c2ncccc2c1 (stereo not drawn)
EC50: > 200 µM | IC50: 37.2 µM

Nc1nc(N)c(C2=CCN(Cc3ccccc3)CC2)c(=O)[nH]1
EC50: > 200 µM | IC50: > 200 µM

Nc1nc(Cl)cc(NCC2(O)CCCC2)n1
EC50: > 200 µM | IC50: 166 µM

CC12CCC(C(=O)OC1=O)C2(C)C (stereo not drawn)
EC50: > 200 µM | IC50: > 200 µM

CC(C)C1=CC23CCC4C(C)(C(=O)O)CCCC4(C)C2CC1C1C(=O)N(c2ccc(C(=O)O)cc2)C(=O)C13 (stereo not drawn)
EC50: > 45.7 µM | IC50: > 45.7 µM

CC(C)(C)C1C2N1C1(c3ccccc3)OC2(c2ccccc2)c2ccccc21 (stereo not drawn)
EC50: > 10.2 µM | IC50: > 10.2 µM

CCNC(=S)NNC(=O)c1csc(NC(=S)NC2CCCCC2)n1
EC50: > 200 µM | IC50: 6.61 µM

CCOC1(OCC)C2C=CC1C(COS(=O)(=O)c1ccc(C)cc1)C2COS(=O)(=O)c1ccc(C)cc1 (stereo not drawn)
EC50: > 200 µM | IC50: 14.1 µM

CCOC(=O)NN(C(=O)OCC)C(C(=O)c1ccccc1)N(NC(=O)OCC)C(=O)OCC
EC50: > 200 µM | IC50: > 200 µM

COc1ccc(N2CCN(c3ccc4c(c3)NCC(=O)N4)CC2)cc1
EC50: > 200 µM | IC50: 45.7 µM

COc1cc(/C=C2\S/C(=N/Nc3nc(-c4ccc(Br)cc4)cs3)NC2=O)cc(OC)c1OC
EC50: > 200 µM | IC50: 17 µM

COc1ccc(-c2cncc(-c3ccc(OC)c(OC)c3)c2)cc1OC
EC50: > 20.4 µM | IC50: > 20.4 µM

Cc1ccc(S(=O)(=O)N2c3ccccc3[C@H]3CCc4c([nH]c5ccccc45)[C@H]32)cc1
EC50: 35.5 µM | IC50: > 100 µM

CC1CCCC2=C1C(c1ccc(Cl)cc1)n1c(s/c(=C\c3ccc(Cl)cc3)c1=O)=N2 (stereo not drawn)
outcome: inactive

CCCCN(CCCC)CCCCNc1c(C)cnc2cc(Cl)ccc12
EC50: > 26.9 µM | IC50: 9.33 µM

Nc1ccc(/C=C/c2ccc3cccnc3c2)cc1
EC50: 0.0631 µM | IC50: > 200 µM

CCN(CC)CCC(=O)c1ccc(Oc2ccc(F)cc2)cc1
EC50: > 200 µM | IC50: 22.9 µM

O=C1NC2C(=CC(O)C(O)C2O)c2cc3c(cc21)OCO3 (stereo not drawn)
EC50: > 8.51 µM | IC50: 0.174 µM

CC1=NN(c2nc(N)nc(C/C(N)=N/O)n2)C(C)(C)C1
EC50: > 200 µM | IC50: > 200 µM

N#Cc1c2c(cn3c1nc1ccccc13)CCCC2
EC50: > 200 µM | IC50: 107 µM

O=C1CCCc2cc3c(cc21)CC1(C3)Cc2ccc3c(c2C1)C(=O)CCC3 (stereo not drawn)
EC50: > 200 µM | IC50: 16.2 µM

N#CC1CCCCOCCOCCOCCOCCOCCCCCC1=O (stereo not drawn)
outcome: inactive

CC1=NN(C(=O)CC(=O)Nc2ccccc2Cl)C(=O)C1N=Nc1ccc(C(=O)O)cc1 (stereo not drawn)
EC50: > 200 µM | IC50: 81.3 µM

CC(NC(=O)CNC(=O)C(N)CO)C(=O)NC(CCC(=O)O)C(=O)NC(CCCCN)C(=O)N1CCCC1C(=O)NC(CCC(=O)O)C(=O)NC(CCCCN)C(=O)NC(CCC(=O)O)C(=O)NC(CCCN=C(N)N)C(=O)NC(CO)C(=O)NC(Cc1ccc(O)cc1)C(=O)NC(C)C(=O)NC(Cc1cnc[nH]1)C(=O)NC(CO)C(=O)O (stereo not drawn) (H-SGAEKPEKERSYAHS-OH; configuration not given here)
EC50: > 100 µM | IC50: > 100 µM

c1ccc(N=c2nc(N3CCOCC3)ss2)cc1
outcome: inactive

CCCCNc1nc(C(F)(F)F)nc2nc[nH]c12
EC50: > 200 µM | IC50: > 200 µM

COc1c(O)cc2c(c1O)C1O[C@H](CO)C(O)[C@H](O)[C@H]1OC2=O (stereo partly drawn)
EC50: > 200 µM | IC50: > 200 µM

O/N=c1/sc2ccccc2nc1-c1ccccc1
EC50: > 200 µM | IC50: > 200 µM

Cc1cc(S(=O)(=O)O)c(NC(=O)C(=O)C2C=CCS2(=O)=O)cc1Cl (stereo not drawn)
EC50: > 631 µM | IC50: > 631 µM

Cc1nn(C)cc1P(=S)(c1ccccc1)c1ccccc1
EC50: > 16.6 µM | IC50: > 16.6 µM

Cn1cnc([N+](=O)[O-])c1Sc1n[nH]c(-c2ccc(Cl)cc2)n1
EC50: > 107 µM | IC50: 6.76 µM

CC(C)C1CN1CC(O)Cn1ccnc1[N+](=O)[O-] (stereo not drawn)
EC50: > 200 µM | IC50: > 200 µM

CC1(C)SSC(C)(C)SS1
EC50: > 200 µM | IC50: > 200 µM

CCCCCCCCCCCCOP(=O)(O)OP(=O)(O)OCC1OC(n2ccc(N)nc2=O)CC1O (stereo not drawn)
EC50: 57.5 µM | IC50: > 100 µM

COc1cc(Cc2cnc(N)nc2N)cc(OC)c1OC
EC50: > 200 µM | IC50: > 200 µM

CC(=O)CC(O)(C(F)(F)Cl)C(F)(Cl)Cl (stereo not drawn)
EC50: > 200 µM | IC50: > 200 µM

O=C(CCCN1CCC(Nc2ccc(F)cc2)(c2nnnn2C2CCCCC2)CC1)c1ccc(F)cc1
EC50: > 200 µM | IC50: 16.6 µM

Cc1ccc(NC(=O)CC/C(CC(=O)C(C)(C)C)=N\Nc2ccc([N+](=O)[O-])cc2[N+](=O)[O-])cc1C
EC50: > 14.8 µM | IC50: > 14.8 µM

CCCC(=O)c1ccc(=O)n(C)c1
EC50: > 1380 µM | IC50: 1070 µM

O=C1c2ccccc2-c2nnsc21
EC50: > 191 µM | IC50: 141 µM

CN1N=C(c2ccccc2)c2cc(Cl)ccc2N=C1N/N=C/c1ccc(N(C)C)cc1
EC50: > 200 µM | IC50: > 200 µM

COc1c(Cl)cc(Cc2cc(C(=CCC[C@H]3CC[C@@]4(C)[C@@H](CC[C@@H]5[C@@H]4CC[C@]4(C)[C@@H](C(C)CCCC(C)C)CC[C@@H]54)C3)c3cc(Cc4cc(Cl)c(OC)c(C(=O)O)c4)c(OC)c(C(=O)O)c3)cc(C(=O)O)c2OC)cc1C(=O)O (stereo partly drawn)
EC50: 16.2 µM | IC50: 107 µM

CCOC(=O)C(C(=O)OCC)=c1sc(=C(C(=O)OCC)C(=O)OCC)s1
outcome: inactive

Cc1cc(CC(O)(C(F)(F)F)C(F)(F)F)cc(CC(O)(C(F)(F)F)C(F)(F)F)n1
outcome: inactive

CC(C)(NO)/C(=N\O)c1ccco1
EC50: > 200 µM | IC50: > 200 µM

CNc1ccc(Cl)cc1S(=O)(=O)c1ccc(OC)cc1
EC50: > 200 µM | IC50: 2.14 µM

C1=C\SS/C=C\SS/C=C\SS/C=C\SS/1
EC50: 12.9 µM | IC50: 15.1 µM

Cc1ccc2c(c1)-c1nc(N)c(C#N)c(-c3ccccc3)c1CCS2(=O)=O
EC50: > 200 µM | IC50: > 200 µM

CCOC(=O)c1cn2ccccc2c(C(C)=O)c1=N
EC50: > 200 µM | IC50: 166 µM

Clc1cc(OC23CC4CC(CC(C4)C2)C3)nc(Cl)n1
EC50: > 100 µM | IC50: 45.7 µM

Cc1cn(C(Cc2ccccc2)OCCO)c(=O)[nH]c1=O (stereo not drawn)
EC50: > 200 µM | IC50: > 200 µM

Cc1cc(Cl)ccc1NC(=O)CCCC(=O)C1CCC/C1=N\NC(=O)CC#N (stereo not drawn)
EC50: > 64.6 µM | IC50: > 64.6 µM

NCCCN1CCN(CCCNc2ccc3nnn4c5ccccc5c(=O)c2c34)CC1
EC50: > 100 µM | IC50: 5.89 µM

CCCCCCCCCCNCCSSCCNC(C)=O
EC50: > 200 µM | IC50: 5.37 µM

O=Nc1ccc(O)c(Cl)c1
EC50: > 200 µM | IC50: 13.2 µM

CC#CCCCC1(C)CCCNC1=S (stereo not drawn)
EC50: > 200 µM | IC50: > 200 µM

CC(C)(C)N1NC1C1NN1C(C)(C)C (stereo not drawn)
EC50: > 200 µM | IC50: > 200 µM

CN1COc2c(n(C)c(=O)[nH]c2=O)C1
EC50: > 200 µM | IC50: 120 µM

Clc1ccc(CNCCCNCc2ccc(Cl)c(Cl)c2)cc1Cl
EC50: > 200 µM | IC50: 15.8 µM

COC(=O)C(NC(=O)c1ccccc1)c1ccco1 (stereo not drawn)
EC50: > 955 µM | IC50: 479 µM

COC(CCC(C)C1OC23CC(OC(=O)CC(C(C)O)OC(=O)CC(O)(O2)C(C)CC3(C)C)C1C)c1cccc(O)c1 (stereo not drawn)
outcome: active

CC(=O)OCC1OC(OC2=C(c3ccccc3)C(=O)C(OC3OC(COC(C)=O)C(OC(C)=O)C(OC(C)=O)C3OC(C)=O)=C(c3ccccc3)C2=O)C(OC(C)=O)C(OC(C)=O)C1OC(C)=O (stereo not drawn)
EC50: > 33.9 µM | IC50: 5.89 µM

O=C1CC2(C(=O)O1)C1C(=O)OC(=O)C1C1c3ccccc3C=NN12 (stereo not drawn)
EC50: > 692 µM | IC50: > 692 µM

CN(C)C1C(=O)C(C(=O)NCNC(CCS(C)=O)C(=O)O)=C(O)C2(O)C(=O)C3=C(O)c4c(O)cccc4C(C)(O)C3CC12 (stereo not drawn)
EC50: > 204 µM | IC50: > 100 µM

COC(=O)C(CSCc1ccccc1)NC(=O)CNC(=O)c1ccccc1 (stereo not drawn) (Bz-Gly-[ξC](Bn)-OMe)
EC50: > 245 µM | IC50: 219 µM

CC(C)(C)OC(=O)NC(CS(=O)(=O)O)C(=O)O (stereo not drawn)
EC50: > 200 µM | IC50: > 200 µM

CC(=O)O[C@H]1CC[C@@]2(C)C(=CC[C@@H]3C2CC[C@]2(C)Nc4c(cnn4-c4ccccc4)CC32)C1 (stereo partly drawn)
outcome: inactive

CC(=O)OCC(c1ccccc1)N1C(=O)C(OC(C)=O)[C@H](OC(C)=O)C1=O (stereo partly drawn)
EC50: > 661 µM | IC50: > 661 µM

C[C@]12CC[C@H](O)CC1=CC[C@@H]1C2CC[C@]2(C)NC(=O)C(C#N)CC12 (stereo partly drawn)
outcome: inactive

N#CN=C(N)c1sc2nc3c(c(-c4ccc(Br)cc4)c2c1N)CCCC3
EC50: > 200 µM | IC50: 7.08 µM
